Publication PMC10893172, “Identification of Triazolopyrimidinyl Scaffold SARS-CoV-2 Papain-Like Protease (PL^pro) Inhibitor” (Pharmaceutics, 2024)
Where two headings read alike, the source gives them in different places.

Columns and labels:
[1] = tested on: SARS-CoV and SARS-CoV-2 PL^pro protein; details: known PL^pro inhibitors, literature values; cited from earlier work
[2] = molecular target: SARS-CoV-2 papain-like protease (PL^pro) (Severe acute respiratory syndrome coronavirus 2, UniProt P0DTD1); assay: biochemical
[3] = 0.2 µM PL^pro, 30 µM substrate, 30 min preincubation at 25 °C, endpoint fluorescence after 2 h, triplicate, read-out: IC50

Compound: 5-Amino-2-methyl-N-[2-(1-naphthyl)ethyl]-benzamide [GRL0617]
- IC50 [1]: 1.61 ± 0.09 µM

Compound: C[C@H](c1cccc2ccccc12)N1CCC(C(=O)NCc2cccc(F)c2)CC1 [Hit 3K]
- IC50 [1]: 0.15 ± 0.01 µM

Compound: Cc1cc2nn(CC(=O)NCc3ccco3)c(=O)n2c(Nc2ccc(C)c(C)c2)n1 [Hit 372]
- IC50 [2, 3]: 82 ± 34 µM

Compound: O=C(N/N=C/c1cccc(OC2CSC2)c1)c1ccccc1O [Hit 826]
- IC50 [2]: 328 ± 33 µM

Compound: Cn1nccc1-c1cc(C(=O)NCc2ccc(S(C)(=O)=O)cn2)c(=O)n(-c2cccc(C(F)(F)F)c2)c1 [Hit 903]
- IC50 [2, 3]: 881 ± 41 µM

Compound: Cc1ccc(C)c(NC(=O)Cn2nc3n(C)c(=O)c4c(c(-c5ccccc5)cn4C)n3c2=O)c1 [Hit 922]
- IC50 [2, 3]: 439 ± 43 µM

Compound: Nc1nc2[nH]cnc2c(=S)[nH]1 [Tioguanin (6-TG)]
- IC50 [1]: 72 ± 12 µM
